Measurements reported in the NIST ThermoML archive (doi:10.1016/j.jct.2017.06.008).
± gives the expanded uncertainty stated by the source.

What was measured:
[1] = xn = mol fraction of the nth substance listed; conditions: 100 kPa, Liquid; for speed of sound: Frequency=3 MHz, Single path-length method; for mass density: Vibrating tube method
[2] = refractive index (Na D-line) (dimensionless); xn = mol fraction of the nth substance listed; conditions: 100 kPa, Liquid, Standard Abbe refractometry

CC(=O)CC(C)C [4-methylpentan-2-one] + CC(C)=O
Conditions	mass density, 293.15 K [kg/m3]	mass density, 303.15 K [kg/m3]	mass density, 313.15 K [kg/m3]	refractive index, 293.15 K	refractive index, 303.15 K	refractive index, 313.15 K	speed of sound, 293.15 K [m/s]	speed of sound, 303.15 K [m/s]	speed of sound, 313.15 K [m/s]
[1], x1 = 0.1004	791 ± 3	780 ± 3	769 ± 3	–	–	–	1185.7 ± 1.4	1140.9 ± 1.4	1096.8 ± 1.4
[1], x1 = 0.1992	793 ± 3	782 ± 3	771 ± 3	–	–	–	1186.8 ± 1.4	1143 ± 1.4	1099.4 ± 1.4
[1], x1 = 0.3012	794 ± 3	783 ± 3	773 ± 3	–	–	–	1189.2 ± 1.4	1145.9 ± 1.4	1102.9 ± 1.4
[1], x1 = 0.396	795 ± 3	785 ± 3	774 ± 3	–	–	–	1191.8 ± 1.5	1149 ± 1.5	1106.4 ± 1.5
[1], x1 = 0.5005	796 ± 3	786 ± 3	776 ± 3	–	–	–	1194.8 ± 1.5	1152.4 ± 1.5	1110.4 ± 1.5
[1], x1 = 0.6912	798 ± 3	788 ± 3	779 ± 3	–	–	–	1201.1 ± 1.5	1159.5 ± 1.5	1118.3 ± 1.5
[1], x1 = 0.7996	799 ± 3	790 ± 3	780 ± 3	–	–	–	1205.2 ± 1.6	1163.6 ± 1.6	1122.9 ± 1.6
[1], x1 = 0.8992	799 ± 3	791 ± 3	781 ± 3	–	–	–	1208 ± 1.6	1167.2 ± 1.6	1126.9 ± 1.6
[1], x1 = 1	800 ± 3	792 ± 3	782 ± 3	–	–	–	1212.3 ± 1.6	1171.4 ± 1.6	1131.4 ± 1.6
[2], x1 = 0.1004	–	–	–	1.365 ± 0.005	1.359 ± 0.005	1.354 ± 0.005	–	–	–
[2], x1 = 0.1992	–	–	–	1.37 ± 0.005	1.364 ± 0.005	1.359 ± 0.005	–	–	–
[2], x1 = 0.3012	–	–	–	1.374 ± 0.005	1.369 ± 0.005	1.365 ± 0.005	–	–	–
[2], x1 = 0.396	–	–	–	1.378 ± 0.005	1.373 ± 0.005	1.368 ± 0.005	–	–	–
[2], x1 = 0.5005	–	–	–	1.382 ± 0.005	1.377 ± 0.005	1.372 ± 0.005	–	–	–
[2], x1 = 0.6912	–	–	–	1.388 ± 0.005	1.383 ± 0.005	1.379 ± 0.005	–	–	–
[2], x1 = 0.7996	–	–	–	1.391 ± 0.005	1.386 ± 0.005	1.382 ± 0.005	–	–	–
[2], x1 = 0.8992	–	–	–	1.394 ± 0.005	1.389 ± 0.005	1.384 ± 0.005	–	–	–
[2], x1 = 1	–	–	–	1.396 ± 0.005	1.391 ± 0.005	1.387 ± 0.005	–	–	–

CC(=O)CC(C)C [4-methylpentan-2-one] + C[S+](C)[O-]
Conditions	mass density, 293.15 K [kg/m3]	mass density, 303.15 K [kg/m3]	mass density, 313.15 K [kg/m3]	refractive index, 293.15 K	refractive index, 303.15 K	refractive index, 313.15 K	speed of sound, 293.15 K [m/s]	speed of sound, 303.15 K [m/s]	speed of sound, 313.15 K [m/s]
[1], x1 = 0.1002	1052 ± 3	1043 ± 3	1033 ± 3	–	–	–	1453.8 ± 1.4	1418.9 ± 1.4	1384.7 ± 1.4
[1], x1 = 0.2004	1010 ± 3	1001 ± 3	991 ± 3	–	–	–	1409.2 ± 1.4	1373.8 ± 1.4	1339.2 ± 1.4
[1], x1 = 0.3004	973 ± 3	964 ± 3	954 ± 3	–	–	–	1371.9 ± 1.4	1336 ± 1.4	1300.8 ± 1.4
[1], x1 = 0.4007	940 ± 3	931 ± 3	921 ± 3	–	–	–	1338.7 ± 1.5	1302.9 ± 1.5	1267.1 ± 1.5
[1], x1 = 0.4982	912 ± 3	902 ± 3	893 ± 3	–	–	–	1311.8 ± 1.5	1275.3 ± 1.5	1238.9 ± 1.5
[1], x1 = 0.5999	885 ± 3	875 ± 3	866 ± 3	–	–	–	1287.1 ± 1.5	1249.8 ± 1.5	1212.7 ± 1.5
[1], x1 = 0.6992	861 ± 3	851 ± 3	842 ± 3	–	–	–	1266.1 ± 1.5	1227.9 ± 1.5	1190 ± 1.5
[1], x1 = 0.7995	839 ± 3	830 ± 3	820 ± 3	–	–	–	1246.5 ± 1.6	1207.5 ± 1.6	1168.9 ± 1.6
[1], x1 = 0.8981	819 ± 3	810 ± 3	801 ± 3	–	–	–	1229.3 ± 1.6	1189.2 ± 1.6	1149.9 ± 1.6
[1], x1 = 1	801 ± 3	792 ± 3	782 ± 3	–	–	–	1212.3 ± 1.6	1171.4 ± 1.6	1131.4 ± 1.6
[2], x1 = 0.1002	–	–	–	1.466 ± 0.005	1.462 ± 0.005	1.458 ± 0.005	–	–	–
[2], x1 = 0.2004	–	–	–	1.455 ± 0.005	1.451 ± 0.005	1.446 ± 0.005	–	–	–
[2], x1 = 0.3004	–	–	–	1.445 ± 0.005	1.441 ± 0.005	1.436 ± 0.005	–	–	–
[2], x1 = 0.4007	–	–	–	1.436 ± 0.005	1.432 ± 0.005	1.427 ± 0.005	–	–	–
[2], x1 = 0.4982	–	–	–	1.428 ± 0.005	1.423 ± 0.005	1.419 ± 0.005	–	–	–
[2], x1 = 0.5999	–	–	–	1.42 ± 0.005	1.416 ± 0.005	1.411 ± 0.005	–	–	–
[2], x1 = 0.6992	–	–	–	1.413 ± 0.005	1.409 ± 0.005	1.404 ± 0.005	–	–	–
[2], x1 = 0.7995	–	–	–	1.407 ± 0.005	1.402 ± 0.005	1.398 ± 0.005	–	–	–
[2], x1 = 0.8981	–	–	–	1.401 ± 0.005	1.397 ± 0.005	1.392 ± 0.005	–	–	–
[2], x1 = 1	–	–	–	1.396 ± 0.005	1.391 ± 0.005	1.387 ± 0.005	–	–	–
